Assay results: patent publication US9944749B2, “Polycarbonates” (Valspar Sourcing, Inc., priority 2012, dated 2018)
Read-outs that look alike come from different tables or passages of the source.

Key:
human estrogen receptor = target: T1, human estrogen receptor (Homo sapiens, UniProt P03372); assay: suitable in vitro assay whose results are directly correlated to the MCF-7 cell proliferation assay; type: cell-based; conditions: in vitro assay correlated to MCF-7 assay through common reference compounds
T1 sequence (P03372 1-595): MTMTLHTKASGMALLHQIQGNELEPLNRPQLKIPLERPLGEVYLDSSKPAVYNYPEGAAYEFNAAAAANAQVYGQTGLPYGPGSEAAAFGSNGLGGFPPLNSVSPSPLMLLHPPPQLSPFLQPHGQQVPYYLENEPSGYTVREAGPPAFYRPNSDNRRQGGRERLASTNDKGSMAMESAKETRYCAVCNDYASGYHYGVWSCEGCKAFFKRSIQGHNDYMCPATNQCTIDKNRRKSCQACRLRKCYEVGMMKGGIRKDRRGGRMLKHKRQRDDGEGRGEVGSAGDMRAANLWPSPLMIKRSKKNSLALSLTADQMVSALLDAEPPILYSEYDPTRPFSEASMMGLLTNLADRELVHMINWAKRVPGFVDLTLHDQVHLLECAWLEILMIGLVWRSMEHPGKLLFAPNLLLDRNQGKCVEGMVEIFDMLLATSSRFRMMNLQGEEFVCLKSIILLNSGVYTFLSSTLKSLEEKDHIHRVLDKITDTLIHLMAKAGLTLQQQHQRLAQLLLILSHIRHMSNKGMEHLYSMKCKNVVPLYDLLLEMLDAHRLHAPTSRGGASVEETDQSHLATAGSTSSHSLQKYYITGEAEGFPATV

MCF-7, clone WS8, cells = assay: MCF-7 cell proliferation assay of estrogenic activity; type: cell-based, human

Row | SMILES | estrogenic activity (human estrogen receptor) | further results
1 | CC(C)(C)c1cc(Cc2cc(C(C)(C)C)c(O)c(C(C)(C)C)c2)cc(C(C)(C)C)c1O [Structure 8, 4,4′-methylenebis(2,6-di-t-butylphenol)] | do not exhibit appreciable estrogenic activity | –
2 | CC(C)(C)c1cc(O)c(C(C)(C)C)cc1O [Structure 12, 2,5-di-t-butylhydroquinone] | do not exhibit appreciable estrogenic activity | –
3 | Oc1ccc(Cc2ccc(O)cc2)cc1 [Bisphenol F] | – | Log RPE (MCF-7, clone WS8, cells): −2
4 | C[C@]12CC[C@@H]3c4ccc(O)cc4CC[C@H]3[C@@H]1CC[C@@H]2O [17β-estradiol] | – | Log RPE (MCF-7, clone WS8, cells; logarithmic (base 10) Relative Proliferative Effect relative to 17-beta estradiol, cell proliferation measured as total DNA, values 'expected or measured'): 2.00
5 | Cc1cc(Cc2cc(C)c(O)c(C)c2)cc(C)c1O [Structure 6, 4,4′-methylenebis(2,6-dimethylphenol)] | do not exhibit appreciable estrogenic activity | –
6 | Cc1cc(Cc2cc(C)cc(C(C)(C)C)c2O)c(O)c(C(C)(C)C)c1 [Structure 9] | do not exhibit appreciable estrogenic activity | –
7 | CCCC(c1cc(C(C)(C)C)c(O)cc1C)c1cc(C(C)(C)C)c(O)cc1C [Structure 7, 4,4′-butylidenebis(2-t-butyl-5-methylphenol)] | do not exhibit appreciable estrogenic activity | –
